Among the data in PubChem BioAssay (NCI) are GI50 and TGI values, retold here.

Among the test systems are NCI-H226 lung; CCRF-CEM leukemia; SF-295 CNS; HCT-15 colon; SN12C renal; HCT-116 colon; BT-549 breast; M14 melanoma; NCI-H522 lung; RPMI-8226 leukemia.
Common to all, as to assay: NCI-60 cell line screen, 48 h

Where “and” joins values, the source holds several entries; their conditions need not be identical. Equal entries are not always repeated.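 Values below derive from 48-hour exposures of cells grown in 96-well plates, with endpoints linearly interpolated between the two concentrations bracketing the appropriate inhibition level. The concentration for 50% growth inhibition is given as GI50. The concentration for full growth arrest is given as TGI.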

On to `O=C(Cc1ccc(/C=C/C(=O)c2ncc[nH]2)cc1)Nc1ccc(F)cc1`, for which the GI50 was 9.85 µM with NCI-H226 lung; 1.68 µM in the assay on CCRF-CEM leukemia; 4.74 µM with SF-295 CNS; 1.15 µM in the assay on HCT-15 colon; 2.93 µM with SN12C renal; 1.89 µM with HCT-116 colon. Besides, the GI50 is 2.73 µM with BT-549 breast, 5.98 µM in the assay with M14 melanoma, 3.38 µM with NCI-H522 lung and 1.27 µM in the assay with RPMI-8226 leukemia. For the same compound, the TGI with NCI-H226 lung is greater than 33.3 µM; with CCRF-CEM leukemia, greater than 33.3 µM; in the assay with SF-295 CNS it was 11.5 µM; with HCT-15 colon, 7.37 µM; in the assay with SN12C renal, 27.1 µM; in the assay with HCT-116 colon, 6.92 µM. Moreover, the TGI in the assay on BT-549 breast was 11.3 µM; with M14 melanoma, 17.6 µM; in the assay with NCI-H522 lung, 9.42 µM; in the assay with RPMI-8226 leukemia, 7.46 µM.
Consider `NS(=O)(=O)c1ccc(Nc2cc(-c3cccc(O)c3)[nH]n2)cc1`, for which the GI50 in the assay on NCI-H226 lung is greater than 25 µM; with CCRF-CEM leukemia, 8.04 µM; with SF-295 CNS, greater than 25 µM; in the assay with HCT-15 colon it was greater than 25 µM; with SN12C renal, greater than 25 µM; in the assay on HCT-116 colon, greater than 25 µM. The GI50 in the assay with BT-549 breast is greater than 24.1 µM; in the assay with M14 melanoma, greater than 25 µM; in the assay on NCI-H522 lung, 22.6 µM; with RPMI-8226 leukemia, greater than 25 µM. Further, the TGI with NCI-H226 lung, in the assay on CCRF-CEM leukemia, in the assay with SF-295 CNS, in the assay with HCT-15 colon, in the assay on SN12C renal and with HCT-116 colon was greater than 25 µM throughout. Further, the TGI in the assay on BT-549 breast, in the assay with M14 melanoma, with NCI-H522 lung and with RPMI-8226 leukemia was greater than 25 µM in each case.
For the compound `CC(=O)O[C@H]1C(=O)[C@@]2(C)C(C(OC(=O)c3ccccc3)[C@]3(O)C[C@H](OC(=O)C(OC(=O)CCCC(=O)NCCCN(C)C)C(NC(=O)c4ccccc4)c4ccccc4)C(C)=C1C3(C)C)C1(OC(C)=O)COC1C[C@@H]2O` (some centres not stated), the TGI in the assay with NCI-H226 lung worked out at 39.1 µM; in the assay with CCRF-CEM leukemia, 9.58 µM; in the assay on SF-295 CNS, 1.28 µM; with HCT-15 colon, 19.2 µM; in the assay on SN12C renal it was 75.5 µM; in the assay on HCT-116 colon it was 1.53 µM. In addition, the TGI is 31.9 µM with BT-549 breast, 25 µM in the assay on M14 melanoma, less than 0.0105 µM in the assay on NCI-H522 lung and 28.7 µM in the assay with RPMI-8226 leukemia.
In the case of `Fc1cc2[nH]ncc2c2c3c(c(-c4cn[nH]c4C(F)(F)F)nc12)CCCC3`, the GI50 in the assay on NCI-H226 lung is 2.64 µM; with CCRF-CEM leukemia, 1.89 µM; with SF-295 CNS, 2.15 µM; with HCT-15 colon, 2.79 µM; in the assay with SN12C renal, 1.7 µM; in the assay on HCT-116 colon it was 0.923 µM. Besides, the GI50 is 1.38 µM with BT-549 breast, 1.31 µM in the assay with M14 melanoma, 1.62 µM with NCI-H522 lung and 1.56 µM in the assay on RPMI-8226 leukemia. For the same compound, the TGI was greater than 100 µM in the assay on NCI-H226 lung; greater than 100 µM in the assay with CCRF-CEM leukemia; 10.3 µM in the assay with SF-295 CNS; 15.2 µM with HCT-15 colon; 8.63 µM in the assay with SN12C renal; greater than 100 µM with HCT-116 colon. Besides, the TGI in the assay with BT-549 breast was 2.96 µM; in the assay with M14 melanoma it was 4.12 µM; with NCI-H522 lung, 9.4 µM; in the assay on RPMI-8226 leukemia it was greater than 100 µM.
Consider `O=C(Nc1ccc2[nH]nc(-c3ccncc3)c2c1)[C@@H]1CCN(CC(=O)N2CCN(c3ccc(-c4ncccn4)cc3)CC2)C1`, for which the GI50 in the assay with NCI-H226 lung is greater than 100 µM; in the assay on CCRF-CEM leukemia, 5.49 µM; in the assay on SF-295 CNS, greater than 100 µM; with HCT-15 colon, 7.79 µM; in the assay on SN12C renal, greater than 100 µM; in the assay with HCT-116 colon, 0.0783 µM. Moreover, the GI50 in the assay with M14 melanoma is 0.0282 µM; in the assay on NCI-H522 lung, 7.27 µM; in the assay on RPMI-8226 leukemia, 4.29 µM. Moreover, the TGI is greater than 100 µM in the assay with NCI-H226 lung; greater than 100 µM with CCRF-CEM leukemia; greater than 100 µM in the assay with SF-295 CNS; greater than 100 µM in the assay on HCT-15 colon; greater than 100 µM in the assay on SN12C renal; greater than 44.6 µM in the assay with HCT-116 colon. Also, the TGI with BT-549 breast was greater than 100 µM; in the assay on M14 melanoma it was 0.289 µM; in the assay with NCI-H522 lung it was greater than 100 µM; with RPMI-8226 leukemia, greater than 66.7 µM.
`OCCN1CCN(CCCN2c3ccccc3Sc3ccc(Cl)cc32)CC1`: the GI50 in the assay with NCI-H226 lung is 5.26 µM; in the assay on CCRF-CEM leukemia, 2.2 µM; in the assay with SF-295 CNS, 1.75 µM; in the assay on HCT-15 colon it was 2.39 µM; in the assay on SN12C renal, 3.42 µM; in the assay on HCT-116 colon, 1.76 µM. The GI50 in the assay with BT-549 breast is 4.49 µM; in the assay with M14 melanoma, 1.88 µM; in the assay with NCI-H522 lung it was 1.5 µM; in the assay with RPMI-8226 leukemia it was 2.29 µM. Further, the TGI was found to be 19.2 µM with NCI-H226 lung; 6.24 µM in the assay on CCRF-CEM leukemia; 3.65 µM in the assay on SF-295 CNS; 6.13 µM in the assay with HCT-15 colon; 14.2 µM with SN12C renal; 3.55 µM with HCT-116 colon. The TGI worked out at 16.6 µM in the assay with BT-549 breast, 3.6 µM in the assay on M14 melanoma, 3.13 µM in the assay on NCI-H522 lung and 6.7 µM in the assay with RPMI-8226 leukemia.
Regarding `COc1ccc2c(c1)/C(=C\c1c(-c3cc(OC)ccc3OC)nc3sc(C)cn13)C(=O)N2C`, the GI50 in the assay with NCI-H226 lung is 30.9 µM; in the assay with CCRF-CEM leukemia, 12.1 µM; with SF-295 CNS, 13.1 µM; with HCT-15 colon it was 33.9 µM; with SN12C renal it was 24.7 µM; in the assay on HCT-116 colon, 22.3 µM. Also, the GI50 in the assay on BT-549 breast is 32.3 µM; with M14 melanoma, 26.1 µM; with NCI-H522 lung, 29.6 µM; with RPMI-8226 leukemia, 9.13 µM. Moreover, the TGI is greater than 100 µM in the assay with NCI-H226 lung; greater than 100 µM in the assay on CCRF-CEM leukemia; 35.8 µM in the assay with SF-295 CNS; greater than 100 µM in the assay on HCT-15 colon; greater than 100 µM in the assay with SN12C renal; greater than 100 µM in the assay on HCT-116 colon. For the same compound, the TGI with BT-549 breast was greater than 100 µM; in the assay on M14 melanoma, 71.4 µM; with NCI-H522 lung, greater than 100 µM; in the assay with RPMI-8226 leukemia, 58.4 µM.
Take `COc1cc2c(cc1OC)[C@@H](Nc1ccc(C#N)cc1)C1COC(=O)[C@@H]1C2c1cc(OC)c(O)c(OC)c1` (some centres not stated): the TGI in the assay on NCI-H226 lung was 0.298 µM; in the assay on CCRF-CEM leukemia, 0.0709 µM and 0.451 µM; in the assay with SF-295 CNS it was 2 µM and 3.21 µM; in the assay on SN12C renal, 2.28 µM; in the assay with HCT-116 colon, 25.8 µM and > 100 µM; in the assay on BT-549 breast, 9.78 µM. For the same compound, the TGI in the assay on M14 melanoma was 95 µM and > 100 µM; in the assay with RPMI-8226 leukemia, 0.225 µM and 0.65 µM. Moreover, the GI50 with CCRF-CEM leukemia was 0.0111 µM and 0.0152 µM; in the assay on HCT-15 colon, 0.91 µM and 1.39 µM; in the assay on HCT-116 colon, 6.81 µM and 3.23 µM; in the assay with M14 melanoma it was 0.515 µM and 0.342 µM; in the assay on NCI-H522 lung, 1.11 µM and 5.06 µM.
